In ChEMBL document CHEMBL3603826, “6-Arylpyrazine-2-carboxamides: A New Core for Trypanosoma brucei Inhibitors” (J Med Chem, 2015):
Values after ≈ are worked out from the molar mass of the structure shown.

Legend:
[1] = test system: Trypanosoma brucei brucei; test: Anti-parasitic activity against Trypanosoma brucei brucei 427 bloodstream parasites incubated for 48 hrs by alamar blue dye based assay; type: functional, organism-based; conditions: Trypanosoma brucei, 427, 48 h
[2] = Selectivity index, ratio of cytotoxic IC50 for HEK293 cells to EC50 for anti-parasitic activity against Trypanosoma brucei brucei 427 bloodstream parasites; type: toxicity, cell-based; conditions: human, read-out: Ratio IC50/EC50
[3] = test system: Trypanosoma brucei rhodesiense; test: Anti-parasitic activity against Trypanosoma brucei rhodesiense STIB 900 trypomastigotes incubated for 70 hrs by alamar blue dye based assay; type: functional, organism-based; conditions: STIB 900, 70 h
[4] = Selectivity index, ratio of cytotoxic IC50 for rat L6 cells to EC50 for anti-parasitic activity against Trypanosoma brucei rhodesiense STIB 900; type: toxicity, cell-based; conditions: read-out: Ratio IC50/EC50
[5] = test system: Trypanosoma cruzi; test: Anti-parasitic activity against Trypanosoma cruzi Tulahuen C2C4 trypomastigotes infected rat L6 cells incubated for 96 hrs by CPRG/nonidet substrate based […]; type: functional, organism-based; conditions: Tulahuen C2C4, L6, 96 h
[6] = test system: Leishmania donovani; test: Anti-parasitic activity against Leishmania donovani MHOM/ET/67/L82 axenic amastigotes incubated for 70 hrs by alamar blue dye based assay; type: functional, organism-based; conditions: MHOM/ET/67/L82, 70 h
[7] = Toxicity against rat L6 cells incubated for 70 hrs by alamar blue dye based assay; type: cell-based
[8] = test system: Plasmodium falciparum; test: Anti-parasitic activity against chloroquine and pyrimethamine resistant Plasmodium falciparum K1 erythrocytic stages infected in human erythrocytes incubated for 48 hrs by [3H]-hypoxanthine incorporation assay; type: functional, organism-based
[9] = molecular target: serum albumin (Homo sapiens, UniProt P02768); test: Binding affinity to human serum albumin by chromatographic method; type: ADME; conditions: read-out: PB (converted)
[10] = Kinetic solubility in pH 6.5 phosphate buffer by nephelometry; type: physicochemical; conditions: read-out: Kinetic_solubility
[11] = Partition coefficient, logD of the compound at pH 7.4 by HPLC method; type: physicochemical; conditions: octanol/water
[12] = Kinetic solubility in pH 2.0 0.01M HCl buffer by nephelometry; type: physicochemical; conditions: read-out: Kinetic_solubility
[13] = Intrinsic clearance in human liver microsomes assessed per mg protein at pH 7.4 at 0.5 uM in presence of NADPH regenerating system by LC-MS method; type: ADME; conditions: read-out: CLH
[14] = Stability assessed as degradation half life; type: physicochemical

Sequence of serum albumin (P02768 whole entry): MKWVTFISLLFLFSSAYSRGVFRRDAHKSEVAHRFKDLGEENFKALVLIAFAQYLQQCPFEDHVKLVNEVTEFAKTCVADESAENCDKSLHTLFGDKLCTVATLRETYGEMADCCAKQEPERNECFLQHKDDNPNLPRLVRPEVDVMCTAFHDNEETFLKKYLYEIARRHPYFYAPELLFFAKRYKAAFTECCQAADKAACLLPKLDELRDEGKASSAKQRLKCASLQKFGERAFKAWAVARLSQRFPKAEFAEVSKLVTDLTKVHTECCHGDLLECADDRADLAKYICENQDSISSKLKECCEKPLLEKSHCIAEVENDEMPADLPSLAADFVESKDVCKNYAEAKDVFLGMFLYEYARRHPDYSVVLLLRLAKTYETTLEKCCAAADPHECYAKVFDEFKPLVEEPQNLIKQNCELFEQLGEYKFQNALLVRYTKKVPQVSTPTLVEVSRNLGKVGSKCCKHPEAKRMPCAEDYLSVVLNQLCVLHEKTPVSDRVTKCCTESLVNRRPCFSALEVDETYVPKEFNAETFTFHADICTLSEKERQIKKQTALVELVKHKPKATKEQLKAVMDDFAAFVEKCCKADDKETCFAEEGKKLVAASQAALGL

Structure (SMILES) | EC50 [1] | selectivity ratio [2] | also measured
Nc1ncc(-c2ccccc2)nc1C(=O)Nc1ccccc1 | > 10000 nM |  | 
CCC(C)NC(=O)c1nc(-c2ccccc2)cnc1N (configuration not stated) | 490 nM | > 263 | EC50 [3]: 970 nM; selectivity ratio [4]: 19; EC50 [5]: 19000 nM; EC50 [6]: > 10000 nM; IC50 at 70 h [7]: 18000 nM; EC50 [8]: 11000 nM
CCC(CC)NC(=O)c1nc(-c2cc(C)cc(Cl)c2)cnc1N | 770 nM | 50 | 
CC(C)NC(=O)c1nc(-c2ccccc2)cnc1N | 2600 nM | > 33 | 
CCC(CC)NC(=O)c1nc(-c2ccccc2)cnc1N | 320 nM | > 263 | fraction unbound [9]: 0.05; solubility kinetic [10]: 3.1 µg/mL (≈ 10.9 µM); logD [11]: 4.3; solubility kinetic [12]: 6.3 µg/mL (≈ 22.2 µM); microsomal CLint at 0.5 µM [13]: 133 µL/min/mg; half-life [14]: 13 min
CNC(=O)c1nc(-c2ccccc2)cnc1N | > 10000 nM |  | 
CCCCCNC(=O)c1nc(-c2ccccc2)cnc1N | 1700 nM | 50 | 
CCCC(C)NC(=O)c1nc(-c2ccccc2)cnc1N (configuration not stated) | 530 nM | > 156 | 
Nc1ncc(-c2ccccc2)nc1C(=O)NCCCCO | 7300 nM | > 11 | 
Nc1ncc(-c2ccccc2)nc1C(=O)NCCO | > 10000 nM |  | 
Nc1ncc(-c2ccccc2)nc1C(=O)NCCN1CCCC1 | > 10000 nM |  | 
Nc1ncc(-c2ccccc2)nc1C(=O)NCCc1ccccc1 | > 10000 nM |  | 
Nc1ncc(-c2ccccc2)nc1C(=O)NCCN1CCOCC1 | > 10000 nM |  | 
Nc1ncc(-c2ccccc2)nc1C(=O)NCc1ccccc1 | 2600 nM | 32 | 
CC(C)(C)NC(=O)c1nc(-c2ccccc2)cnc1N | 3000 nM | > 14 | fraction unbound [9]: 0.015; solubility kinetic [10]: < 1.6 µg/mL; logD [11]: 4.3; solubility kinetic [12]: < 1.6 µg/mL; microsomal CLint at 0.5 µM [13]: 246 µL/min/mg; half-life [14]: 7 min
Nc1ncc(-c2ccccc2)nc1C(=O)N1CCCC1 | 6100 nM | > 14 | 
Nc1ncc(-c2ccccc2)nc1C(=O)N1CCCCC1 | 4600 nM | > 18 | 
Nc1ncc(-c2ccccc2)nc1C(=O)N1CCOCC1 | > 10000 nM |  | 
CCC(C)NC(=O)c1nc(-c2ccccc2F)cnc1N (configuration not stated) | 750 nM | 111 | 
CCC(C)NC(=O)c1nc(-c2ccccc2Cl)cnc1N (configuration not stated) | 1100 nM | 76 | 
CCC(C)NC(=O)c1nc(-c2ccccc2Br)cnc1N (configuration not stated) | > 10000 nM |  | 
CCC(C)NC(=O)c1nc(-c2ccccc2OC)cnc1N (configuration not stated) | 5400 nM | > 15.4 | 
CCC(C)NC(=O)c1nc(-c2ccccc2[N+](=O)[O-])cnc1N (configuration not stated) | 890 nM | 94 | 
CCC(C)NC(=O)c1nc(-c2ccccc2N)cnc1N (configuration not stated) | > 10000 nM |  | 
CCC(C)NC(=O)c1nc(-c2ccccc2C(C)=O)cnc1N (configuration not stated) | 10000 nM | 7.9 | 
CCC(C)NC(=O)c1nc(-c2ccccc2C)cnc1N (configuration not stated) | 1200 nM | > 71 | 
CCC(C)NC(=O)c1nc(-c2ccccc2C#N)cnc1N (configuration not stated) | 350 nM | > 239 | fraction unbound [9]: 0.05; solubility kinetic [10]: 1.6 µg/mL (≈ 5.42 µM); logD [11]: 3.6; EC50 [3]: 640 nM; solubility kinetic [12]: 1.6 µg/mL (≈ 5.42 µM); EC50 [5]: 11000 nM; EC50 [6]: > 10000 nM; microsomal CLint at 0.5 µM [13]: 122 µL/min/mg; half-life [14]: 14 min; IC50 at 70 h [7]: 18000 nM; EC50 [8]: 3600 nM
CCC(C)NC(=O)c1nc(-c2cccc(F)c2)cnc1N (configuration not stated) | 820 nM | 102 | 

Structure (SMILES) | EC50 [1] | selectivity ratio [2] | also measured
CCC(C)NC(=O)c1nc(-c2cccc(Br)c2)cnc1N (configuration not stated) | 570 nM | 147 | 
CCC(C)NC(=O)c1nc(-c2cccc(OC)c2)cnc1N (configuration not stated) | 410 nM | > 201 | 
CCC(C)NC(=O)c1nc(-c2cccc([N+](=O)[O-])c2)cnc1N (configuration not stated) | 450 nM | 185 | 
CCC(C)NC(=O)c1nc(-c2cccc(N)c2)cnc1N (configuration not stated) | 1100 nM | > 77.8 | 
CCC(C)NC(=O)c1nc(-c2cccc(C(C)=O)c2)cnc1N (configuration not stated) | > 10000 nM |  | 
CCC(C)NC(=O)c1nc(-c2cccc(C)c2)cnc1N (configuration not stated) | 170 nM | > 495 | EC50 [3]: 130 nM; selectivity ratio [4]: 340; EC50 [5]: 25000 nM; EC50 [6]: > 10000 nM; IC50 at 70 h [7]: 43000 nM; EC50 [8]: 19000 nM
CCC(C)NC(=O)c1nc(-c2cccc(C#N)c2)cnc1N (configuration not stated) | 2700 nM | > 30.5 | 
CCC(C)NC(=O)c1nc(-c2ccc(Cl)cc2)cnc1N (configuration not stated) | 680 nM | 122 | fraction unbound [9]: 0.03; solubility kinetic [10]: 1.6 µg/mL (≈ 5.25 µM); logD [11]: 4.5; solubility kinetic [12]: 3.1 µg/mL (≈ 10.2 µM); microsomal CLint at 0.5 µM [13]: 48 µL/min/mg; half-life [14]: 36 min
CCC(C)NC(=O)c1nc(-c2ccc(Br)cc2)cnc1N (configuration not stated) | 2200 nM | 38 | 
CCC(C)NC(=O)c1nc(-c2ccc(OC)cc2)cnc1N (configuration not stated) | 1300 nM | > 63.9 | 
CCC(C)NC(=O)c1nc(-c2ccc([N+](=O)[O-])cc2)cnc1N (configuration not stated) | 4500 nM | > 18.5 | 
CCC(C)NC(=O)c1nc(-c2ccc(N)cc2)cnc1N (configuration not stated) | 2900 nM | > 28.4 | 
CCC(C)NC(=O)c1nc(-c2ccc(C(C)=O)cc2)cnc1N (configuration not stated) | 4700 nM | 8.8 | 
CCC(C)NC(=O)c1nc(-c2ccc(C)cc2)cnc1N (configuration not stated) | 3740 nM | 22 | 
CCC(C)NC(=O)c1nc(-c2ccc(C#N)cc2)cnc1N (configuration not stated) | 2700 nM | > 30.4 | 
CCC(CC)NC(=O)c1nc(-c2ccccc2C#N)cnc1N | 170 nM | 488 | EC50 [3]: 130 nM; selectivity ratio [4]: 80; EC50 [5]: 15000 nM; EC50 [6]: > 10000 nM; IC50 at 70 h [7]: 10000 nM; EC50 [8]: 4800 nM
CCC(CC)NC(=O)c1nc(-c2cc(C)cc(C)c2)cnc1N | 480 nM | 173 | 
CCC(CC)NC(=O)c1nc(-c2cccc(C(F)(F)F)c2)cnc1N | 260 nM | 80 | 
CCC(CC)NC(=O)c1nc(-c2cccc(Cl)c2)cnc1N | 360 nM | 110 | 
CCC(CC)NC(=O)c1nc(-c2ccc(F)c(Cl)c2)cnc1N | 220 nM | 190 | 
Nc1ncc(-c2ccc(F)cc2)nc1C(=O)NC1CCCC1 | 71 nM | 590 | 
Cc1cc(-c2cnc(N)c(C(=O)NC3CCCC3)n2)ccc1F | 24 nM | 3540 | 
N#Cc1cc(F)ccc1-c1cnc(N)c(C(=O)NC2CCCC2)n1 | 57 nM | 1470 | 
Nc1ncc(-c2cccc(C(F)(F)F)c2)nc1C(=O)NC1CCCC1 | 150 nM | 560 | 
Nc1ncc(-c2cccc(Cl)c2)nc1C(=O)NC1CCCC1 | 240 nM | 340 | 
Cc1cc(Cl)cc(-c2cnc(N)c(C(=O)NC3CCCC3)n2)c1 | 500 nM | 170 | 
Nc1ncc(-c2ccc(F)c(Cl)c2)nc1C(=O)NC1CCCC1 | 110 nM | 190 | 
